This is an account of results in PMC11783113, “Mechanistic insights into the selective targeting of P2X3 receptor by camlipixant antagonist” (The Journal of Biological Chemistry, 2024).

pKd: −log10 of the molar value.

For assay [1], the target named is T1, P2X3 receptor (Canis lupus, UniProt A0A8I3S575).
T1 construct: gene P2RX3; deletion of five first residues in the N-terminal region and the 33 last residues in the C-terminal region; homotrimer
T1 sequence (A0A8I3S575 6-364): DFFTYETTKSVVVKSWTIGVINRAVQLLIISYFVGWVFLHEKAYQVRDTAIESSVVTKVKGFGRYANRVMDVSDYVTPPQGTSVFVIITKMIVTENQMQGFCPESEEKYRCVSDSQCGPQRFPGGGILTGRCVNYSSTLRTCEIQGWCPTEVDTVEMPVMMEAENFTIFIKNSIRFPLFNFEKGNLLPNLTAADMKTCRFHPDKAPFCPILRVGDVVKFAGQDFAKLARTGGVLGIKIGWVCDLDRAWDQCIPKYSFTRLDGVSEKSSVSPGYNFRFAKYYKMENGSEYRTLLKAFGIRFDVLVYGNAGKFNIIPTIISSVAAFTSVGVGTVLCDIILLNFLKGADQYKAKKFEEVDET
The experiment in a line: MST Kd; cryo-EM structure of the P2X3–ATP complex. The assay is classed as binding.

Assay [2] concerns the target P2X3 receptor (Canis lupus), first five N-terminal and last 33 C-terminal residues deleted (Canis lupus sp.). The experiment in a line: cryo-EM structure; camlipixant-bound P2X3 reconstituted into peptidisc; camlipixant at a molar ratio of 1:5, 30 min on ice; C3 symmetry.
In assay [3] the target is T1, P2X3 receptor. The experiment in a line: ITC Kd; cryo-EM structure of the complex in peptidisc; also calcium influx IC50 […] in cells. The assay is classed as binding.

As usually defined, the pKd is the negative decadic logarithm of the Kd, by convention in mol/L. Compound `Nc1ncnc2c1ncn2[C@@H]1O[C@H](COP(=O)(O)OP(=O)(O)OP(=O)(O)O)[C@@H](O)[C@H]1O` [ATP] showed a pKd at P2X3 receptor [1] of 5.70.

The stoichiometry N is the number of molecules, sites or subunits per partner or assembly. For the compound “P2X3 receptor (Canis lupus), first five N-terminal and last 33 C-terminal residues deleted”, the stoichiometry N in assay [2] was 3.

Turning to `CNC(=O)c1cc(F)c(-c2nc3cc(C)ccn3c2C[C@H]2CN(C(=O)OC)CCO2)c(F)c1` [camlipixant], the pKd on P2X3 receptor [3] was 7.00.
